9 compounds from PubChem BioAssay (NCI) can be followed below.

Test systems include A549 NSCLC; LOX IMVI melanoma; HCT-116 colon; KM12 colon; HOP-92 NSCLC; SK-MEL-5 melanoma; ACHN renal; IGROV1 ovarian; CCRF-CEM leukemia; OVCAR-5 ovarian.
What all share (experiment): NCI-60 cell line screen, 48 h

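All cell lines were grown in 96-well plates and treated with compound for 48 hours. GI50 is the concentration that inhibits growth by half. The concentration for full growth arrest is given as TGI.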 Where only a bound is given, the exact number is not on record here.

As for `Cc1cc(NCCCCNc2ccnc3cc(Cl)ccc23)nc(Nc2ccc(C(=O)N3CCCC3)cc2)n1`, the GI50 in the assay with A549 NSCLC is 3.29 µM; in the assay on LOX IMVI melanoma, 1.48 µM; in the assay on HCT-116 colon, 1.59 µM; in the assay with KM12 colon, 3 µM; in the assay with HOP-92 NSCLC, 1.58 µM; in the assay on SK-MEL-5 melanoma it was 1.7 µM. The GI50 in the assay with ACHN renal is 3.6 µM; in the assay on IGROV1 ovarian, 3.58 µM; with CCRF-CEM leukemia, 2.86 µM; in the assay on OVCAR-5 ovarian it was 4.29 µM. Further, the TGI came out at 10.7 µM in the assay on A549 NSCLC; 3.05 µM with LOX IMVI melanoma; 3.55 µM in the assay on HCT-116 colon; 11.3 µM in the assay on KM12 colon; 3.7 µM with HOP-92 NSCLC; 3.13 µM in the assay on SK-MEL-5 melanoma. Further, the TGI in the assay on ACHN renal is 11.3 µM; with IGROV1 ovarian, 13.4 µM; with CCRF-CEM leukemia, over 100 µM; in the assay with OVCAR-5 ovarian it was 18 µM.
For `CC1CC(=O)C(CC(=O)O)C1C(C(=O)C(=O)Nc1c(C#N)cccc1[N+](=O)[O-])[N+](=O)[O-]` (stereo not given), the TGI in the assay with A549 NSCLC, in the assay with LOX IMVI melanoma, with HCT-116 colon, in the assay with KM12 colon, with HOP-92 NSCLC and with SK-MEL-5 melanoma was over 100 µM throughout. Further, the TGI with ACHN renal, in the assay on IGROV1 ovarian, with CCRF-CEM leukemia and in the assay on OVCAR-5 ovarian was over 100 µM in each case.
In the case of `O=C(N/N=c1/ccoc2cccnc12)N1CCN(c2ncccn2)CC1`, the GI50 in the assay with A549 NSCLC is 0.324 µM; in the assay on LOX IMVI melanoma, under 0.0158 µM; in the assay on HCT-116 colon, under 0.01 µM; with KM12 colon, 0.371 µM; with HOP-92 NSCLC, 0.017 µM; with SK-MEL-5 melanoma, 0.383 µM. Further, the GI50 with ACHN renal is 0.0145 µM; in the assay on IGROV1 ovarian, under 0.01 µM; in the assay with CCRF-CEM leukemia, under 0.01 µM; in the assay on OVCAR-5 ovarian it was 1.5 µM. The TGI in the assay on A549 NSCLC was 9.81 µM; in the assay on LOX IMVI melanoma, 5.12 µM; in the assay on HCT-116 colon, 2.25 µM; with KM12 colon, 10.2 µM; with HOP-92 NSCLC, 2.68 µM; with SK-MEL-5 melanoma it was 2.97 µM. Further, the TGI in the assay on ACHN renal was 13.2 µM; in the assay on IGROV1 ovarian it was 7.98 µM; with CCRF-CEM leukemia, over 54.4 µM; with OVCAR-5 ovarian, 38.3 µM.
Consider `CC1CC(C)/C(=N/NC(N)=O)C(C(O)CC2CCC(=O)NC2=O)C1` (stereo not given), for which the GI50 was 2.36 µM in the assay with A549 NSCLC; 2.48 µM with LOX IMVI melanoma; 3.04 µM with HCT-116 colon; 3.05 µM with KM12 colon; 2.31 µM with HOP-92 NSCLC; 2.85 µM with SK-MEL-5 melanoma. Further, the GI50 was 1.32 µM in the assay on ACHN renal, 2.64 µM in the assay on IGROV1 ovarian, 2 µM with CCRF-CEM leukemia and 3.73 µM in the assay with OVCAR-5 ovarian. Also, the TGI was 56.7 µM in the assay with A549 NSCLC; over 100 µM in the assay with LOX IMVI melanoma; over 100 µM in the assay with HCT-116 colon; 42.4 µM with KM12 colon; 31.5 µM in the assay on HOP-92 NSCLC; 34.8 µM with SK-MEL-5 melanoma. In addition, the TGI in the assay on ACHN renal is over 100 µM; with IGROV1 ovarian it was 56.5 µM; with CCRF-CEM leukemia it was 97.2 µM; in the assay on OVCAR-5 ovarian, 86.2 µM.
Turning to `Oc1ccc2c3c1OC1C(=NN=C4CCC5(O)C6Cc7ccc(O)c8c7C5(CCN6CC5CC5)C4O8)CCC4(O)C(C2)N(CC2CC2)CCC314` (stereo not given), the TGI came out at 42.3 µM with A549 NSCLC; 39.1 µM in the assay with LOX IMVI melanoma; 30.1 µM in the assay on HCT-116 colon; 40.2 µM in the assay on KM12 colon; 53.4 µM in the assay with HOP-92 NSCLC; 34.8 µM in the assay with SK-MEL-5 melanoma. The TGI in the assay on ACHN renal is over 100 µM; with IGROV1 ovarian, over 100 µM; in the assay on CCRF-CEM leukemia, over 68.1 µM; in the assay with OVCAR-5 ovarian, over 100 µM.
Turning to `O=C1CCCC(=O)C1=C(O)CCCCCCCCCCc1ccccc1`, the TGI in the assay on A549 NSCLC is over 100 µM; in the assay on LOX IMVI melanoma, over 100 µM; in the assay with HCT-116 colon it was over 100 µM; in the assay on KM12 colon, over 100 µM; with HOP-92 NSCLC, 39.6 µM; in the assay on SK-MEL-5 melanoma it was 49.5 µM. Further, the TGI in the assay on ACHN renal was over 100 µM; with IGROV1 ovarian, over 100 µM; in the assay on CCRF-CEM leukemia it was 70.8 µM; in the assay on OVCAR-5 ovarian, 74.6 µM.
As to `O=C(Nc1ccc(Cl)cc1)c1ccc([N+](=O)[O-])o1`, the GI50 in the assay on A549 NSCLC was 2.64 µM; with LOX IMVI melanoma, 1.34 µM; in the assay with HCT-116 colon, 1.39 µM; in the assay with KM12 colon, 2.35 µM; in the assay on HOP-92 NSCLC, 10.4 µM; in the assay with SK-MEL-5 melanoma it was 3.42 µM. For the same compound, the GI50 in the assay with ACHN renal was 1.95 µM; in the assay on IGROV1 ovarian it was 3.25 µM; with CCRF-CEM leukemia it was 4.11 µM; in the assay with OVCAR-5 ovarian, 2.37 µM. Besides, the TGI in the assay with A549 NSCLC worked out at 9.21 µM; with LOX IMVI melanoma, 2.97 µM; with HCT-116 colon, 3.11 µM; with KM12 colon it was 6.38 µM; in the assay with HOP-92 NSCLC, 27.2 µM; with SK-MEL-5 melanoma, 13.2 µM. For the same compound, the TGI in the assay on ACHN renal was determined as 4.07 µM; in the assay with IGROV1 ovarian, 11.2 µM; in the assay on CCRF-CEM leukemia it was 49.4 µM; with OVCAR-5 ovarian, 5.41 µM.
For `O=C1Nc2ccccc2/C1=C/c1ccccc1`, the TGI in the assay on A549 NSCLC is 90.7 µM; in the assay with LOX IMVI melanoma, 27.6 µM; with HCT-116 colon, 27 µM; in the assay with KM12 colon it was 33.2 µM; in the assay on HOP-92 NSCLC it was 25.5 µM; in the assay on SK-MEL-5 melanoma, 26.1 µM. For the same compound, the TGI in the assay on ACHN renal is over 100 µM; in the assay on IGROV1 ovarian, 33.1 µM; with CCRF-CEM leukemia, 71.6 µM; with OVCAR-5 ovarian it was 34.5 µM.
As for `Cc1ccc(NSc2ccccc2[N+](=O)[O-])cc1`, the GI50 in the assay on A549 NSCLC is 0.951 µM; with LOX IMVI melanoma, 0.912 µM; in the assay on HCT-116 colon, 0.48 µM; with KM12 colon, 0.141 µM; in the assay on HOP-92 NSCLC it was 0.502 µM; in the assay with SK-MEL-5 melanoma, 0.152 µM. For the same compound, the GI50 with ACHN renal is 2.3 µM; in the assay with IGROV1 ovarian it was 1.25 µM; with CCRF-CEM leukemia, 0.85 µM; in the assay with OVCAR-5 ovarian, 3.42 µM. The TGI in the assay with A549 NSCLC was found to be 17.1 µM; with LOX IMVI melanoma it was 18.5 µM; with HCT-116 colon it was 12.1 µM; in the assay on KM12 colon, 12.5 µM; with HOP-92 NSCLC, 13.7 µM; in the assay on SK-MEL-5 melanoma it was 13.6 µM. In addition, the TGI is 23.4 µM in the assay on ACHN renal, 28.2 µM in the assay on IGROV1 ovarian, over 52.2 µM in the assay with CCRF-CEM leukemia and 20.9 µM with OVCAR-5 ovarian.
